Values quoted from earlier work as cited in patent US7446116B2, “Montelukast amantadine salt” (Synthon BV, priority 2006, dated 2008).
Where a name gives a salt, the structure may show the parent alone.

Assays:
human patient = conditions: doses of at least 200 mg per day
rats = conditions: oral administration

## NC12CC3CC(CC(C3)C1)C2 [amantadine hydrochloride]
Human patient
  safety for a human patient: safe and nontoxic

## CC(C)(C)N [tert.butyl amine]
rats
  toxicity, expressed as LD50 value: 44 mg/kg
